# Assay results taken from patent US9296787B2, “Antitumor peptide and use thereof” (priority 2011, dated 2016).
# Read-outs that look alike come from different tables or passages of the source. Positions of bridges follow the written chain, without caps; N, C: chain ends. Residues, ends and D or L forms follow the SMILES beside them. No end group written: not given here.
# How the values were obtained:
# [1] = system: human alveolar basal epithelial adenocarcinoma cells, A549; type: cell-based; settings: for A450(-A620) After 24 hers: A549, peptide 50 μM, WST-8 absorbance after 24 hours
# Procedure: (§1) As the tumor cells tested, a commercial mouse neuroblastoma cell line (N1E-115) was used. The cell line was cultured beforehand in a DMEM medium (i.e. Dulbecco MEM medium (DMEM medium, a Gibco product) containing 10% fetal bovine serum (FBS, a Gibco product), 2 mM of L-glutamine, 50 unit/mL of penicillin, and 50 μg/mL of streptomycin), and the number of cells per well in a 96-well plate was adjusted to approximately 5×10^3. The volume of the medium for this was 100 μL per well.
# (§2) Subsequently, the stock solution of each sample peptide shown in Table 3 was added to each well to a peptide concentration in the well of 50 μM or 100 μM.
# (§3) After the sample peptides were added as described above, the 96-well plate was placed in a CO2 incubator and cultured without agitation at 37° C. under 5% CO2. At the time of the peptide addition (at the start of treatment) and at 6 hours or 24 hours from the peptide addition and the start of incubation, the viability status of the cultured cells tested was analyzed with a commercial colorimetric assay kit. In particular, to each cell-culturing well, “water-soluble tetrazolium salt (WST-8)” was added as a colorimetric reagent; after two hours of incubation following the addition, the cell culture medium supplied with the colorimetric reagent was collected; and the level of inhibition of cell proliferation was evaluated by colorimetry, measuring the absorbance at a wavelength of 450 nm (values corrected with the absorbance at a wavelength of 620 nm, A450-A620) based on reduction of tetrazolium salt. Based on the absorbance at the time of the sample peptide addition (at the start of treatment), the percent decrease in the absorbance after 6 hours or 24 hours was determined as the cell proliferation inhibition rate (%).
# Cells forming a […] (human alveolar basal epithelial adenocarcinoma cells, A549) were substituted for the tumor cells tested and the same test as Example 2 described above was carried out. In the present example, the peptides of Samples 1 to 13, 15 to 22, 24, 29, 35 and 40 were used.
# [2] = system: mouse neuroblastoma cell line (N1E-115); type: cell-based; settings: for antitumor activity (tumor cell proliferation-inhibiting activity), in words: N1E-115, 50 or 100 μM, summary of Table 3; for A450(-A620) After 24 hers: WST-8 absorbance after 24 hours
# Procedure: Some of the sample peptides obtained in Example 1 were tested for antitumor activity against target cultured tumor cells. Details of the assay are as described below.
# as §1, §2, §3
Compound,A450(-A620) After 24 hers [1],"antitumor activity (tumor cell proliferation-inhibiting activity), in words ([1]; A549, 50 μM, 24 hours, summary of Table 5)","antitumor activity (tumor cell proliferation-inhibiting activity), in words [2]","A450(-A620) After 24 hers ([2]; N1E-115, peptide 50 μM)","A450(-A620) After 24 hers ([2]; N1E-115, peptide 100 μM)"
"CC[C@H](C)[C@@H]1NC(=O)[C@H](Cc2c[nH]cn2)NC(=O)[C@@H](N)CSSC[C@@H](C(=O)O)NC(=O)[C@H](C)NC(=O)[C@H](CCC(N)=O)NC(=O)[C@H](C)NC(=O)[C@H](Cc2c[nH]cn2)NC(=O)[C@H](CC(C)C)NC1=O [Sample 8, CHILHAQAC] (H-CHILHAQAC-OH; disulfide 1-9; N-terminus and C-terminus assumed)",1.7885,–,–,–,–
"CSCC[C@@H]1NC(=O)[C@@H]2CCCN2C(=O)[C@H](CCCNC(=N)N)NC(=O)[C@H](CCCCN)NC(=O)[C@H](CCC(=O)O)NC(=O)[C@H](Cc2ccc(O)cc2)NC(=O)[C@H](CO)NC(=O)[C@@H](N)CSSC[C@@H](C(=O)O)NC1=O [Sample 11, CSYEKRPMC] (H-CSYEKRPMC-OH; disulfide 1-9; N-terminus and C-terminus assumed)",1.6741,high antitumor activity,–,–,–
"CC(C)C[C@@H]1NC(=O)[C@@H](N)CSSC[C@@H](C(=O)O)NC(=O)[C@H](CO)NC(=O)[C@H]([C@@H](C)O)NC(=O)[C@H](Cc2ccc(O)cc2)NC(=O)[C@H](CO)NC(=O)[C@H](CCCCN)NC(=O)[C@H]([C@@H](C)O)NC1=O [Sample 12, CLTKSYTSC] (H-CLTKSYTSC-OH; disulfide 1-9; N-terminus and C-terminus assumed)",1.9165,–,–,–,–
"SLLPHSNHAKHY [Sample 19, SLLPHSNHAKHY]",1.8271,–,–,–,–
EFEYFHPATFRLKKRTLRKNDRKKR [Sample 42],–,–,high antitumor activity,0.5145,0.4114
GPHHYWYHLRLPKKRTLRKNDRKKR [Sample 38],–,–,high antitumor activity,0.4605,0.3592
CC(C)C[C@H](NC(=O)[C@@H](NC(=O)[C@H](CCCNC(=N)N)NC(=O)[C@H](CCCCN)NC(=O)[C@H](CCCCN)NC(=O)[C@@H]1CSSC[C@H](N)C(=O)N[C@@H](CO)C(=O)N[C@@H](CO)C(=O)N[C@@H](C)C(=O)N[C@@H]([C@@H](C)O)C(=O)NCC(=O)N[C@@H](CCCCN)C(=O)N[C@@H](CO)C(=O)N1)[C@@H](C)O)C(=O)N[C@@H](CCCNC(=N)N)C(=O)N[C@@H](CCCCN)C(=O)N[C@@H](CC(N)=O)C(=O)N[C@@H](CC(=O)O)C(=O)N[C@@H](CCCNC(=N)N)C(=O)N[C@@H](CCCCN)C(=O)N[C@@H](CCCCN)C(=O)N[C@@H](CCCNC(=N)N)C(=O)O [Sample 23] (H-CSSATGKSCKKRTLRKNDRKKR-OH; disulfide 1-9; N-terminus and C-terminus assumed),–,–,high antitumor activity,0.4127,0.3841
CC(C)C[C@H](NC(=O)[C@@H](NC(=O)[C@H](CCCNC(=N)N)NC(=O)[C@H](CCCCN)NC(=O)[C@H](CCCCN)NC(=O)[C@@H]1CSSC[C@H](N)C(=O)NCC(=O)N[C@@H](Cc2c[nH]cn2)C(=O)N[C@@H](CCCNC(=N)N)C(=O)N2CCC[C@H]2C(=O)N[C@@H](Cc2ccc(O)cc2)C(=O)N[C@@H](CCC(N)=O)C(=O)N[C@@H](Cc2ccc(O)cc2)C(=O)N1)[C@@H](C)O)C(=O)N[C@@H](CCCNC(=N)N)C(=O)N[C@@H](CCCCN)C(=O)N[C@@H](CC(N)=O)C(=O)N[C@@H](CC(=O)O)C(=O)N[C@@H](CCCNC(=N)N)C(=O)N[C@@H](CCCCN)C(=O)N[C@@H](CCCCN)C(=O)N[C@@H](CCCNC(=N)N)C(=O)O [Sample 26] (H-CGHRPYQYCKKRTLRKNDRKKR-OH; disulfide 1-9; N-terminus and C-terminus assumed),–,–,high antitumor activity,0.4550,0.3643
GPHLGMNQRRRPKKRTLRKNDRKKR [Sample 43],–,–,high antitumor activity,0.4784,0.4110
